What was measured:
α-synuclein = molecular target: T1, α-synuclein (Homo sapiens, UniProt P37840); assay: ThT seeded aggregation kinetics; half-time increased […] times at […] molar equivalents; weakest, not significant at […] equivalents; type: biochemical
T1 construct: gene SNCA

α-synuclein (fibrils) = molecular target: T2, α-synuclein (fibrils) (Homo sapiens, UniProt P37840); assay: fluorescence polarization with fibrils (Kd in monomer equivalents); supported by mass spectrometry pull-down, fluorescence colocalization and aggregation kinetics; type: binding
T2 construct: gene SNCA; recombinant human α-synuclein, preformed amyloid fibrils

| ThT seeded aggregation kinetics; half-time increased 1.5 times at 10 molar equiv (α-synuclein) | Kd (α-synuclein (fibrils)) [µM] | SMILES |
| --- | --- | --- |
| 1.5 fold increase in half-time (t1/2) | – | Cc1nc2ccccn2c1C(=O)NCc1nccnc1-c1ccco1 [A, compound A] |
| – | ~4 | Cc1c(OCc2nnn[nH]2)ccc2c1oc(=O)c1ccccc12 [C, compound C] |

From article PMC9811465, “Structure-Based Discovery of Small-Molecule Inhibitors of the Autocatalytic Proliferation of α-Synuclein Aggregates” (Molecular Pharmaceutics, 2022)
